We go through 18 molecules from patent US20260209248A1, “INHIBITORS OF KIF18A AND USES THEREOF” (Insilico Medicine IP Limited, priority 2022, published 2026).

In the assay the target is T1, KIF18A (Homo sapiens, UniProt Q8NI77).
T1 sequence (Q8NI77 1-898): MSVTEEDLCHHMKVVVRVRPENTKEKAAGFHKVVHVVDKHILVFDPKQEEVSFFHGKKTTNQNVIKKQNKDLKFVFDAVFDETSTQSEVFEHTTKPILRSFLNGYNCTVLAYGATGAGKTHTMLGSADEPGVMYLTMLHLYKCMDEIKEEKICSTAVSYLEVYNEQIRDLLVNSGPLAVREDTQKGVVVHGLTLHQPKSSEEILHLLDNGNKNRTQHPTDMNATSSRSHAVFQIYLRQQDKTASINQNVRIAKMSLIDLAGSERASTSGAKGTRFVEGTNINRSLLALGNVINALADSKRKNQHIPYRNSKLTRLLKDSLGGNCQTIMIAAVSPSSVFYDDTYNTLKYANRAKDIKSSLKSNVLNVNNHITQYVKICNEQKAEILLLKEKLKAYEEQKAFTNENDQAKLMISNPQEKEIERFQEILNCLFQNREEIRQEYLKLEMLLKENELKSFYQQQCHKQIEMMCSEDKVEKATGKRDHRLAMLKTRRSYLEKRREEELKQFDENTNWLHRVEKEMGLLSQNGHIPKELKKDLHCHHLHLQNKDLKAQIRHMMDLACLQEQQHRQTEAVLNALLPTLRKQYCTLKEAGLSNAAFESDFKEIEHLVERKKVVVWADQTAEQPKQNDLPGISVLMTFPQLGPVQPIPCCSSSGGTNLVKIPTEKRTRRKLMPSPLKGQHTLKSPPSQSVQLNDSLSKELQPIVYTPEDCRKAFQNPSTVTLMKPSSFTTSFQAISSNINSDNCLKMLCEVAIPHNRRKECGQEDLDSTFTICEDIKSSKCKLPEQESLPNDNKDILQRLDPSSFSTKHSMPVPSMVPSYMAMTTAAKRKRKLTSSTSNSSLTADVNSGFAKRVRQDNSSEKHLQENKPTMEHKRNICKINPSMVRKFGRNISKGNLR
The assay can be described thus: KIF18A Assay (ADP Glo luminescence). It is filed as biochemical. Particulars: enzyme pre-incubated 15 min at 25° C., ATP reaction 60 min, 10 pts 1:3 dilution. How it is done:
The KIF18A assay was performed as follows:
1.1. Prepared 1× kinase Buffer 1.2. […] 1.3. Data analysis−Calculated IC50 and plot dose-response curve of compounds: • Calculated IC50 by fitting % Inhibition values and log of compound concentrations to nonlinear regression (dose response−variable slope) with GraphPad 6.0.
[formula] • X: log of inhibitor concentration; Y: % Inhibition
Background: ADP-Glo turns the ADP formed in a reaction into a luminescent signal.
Usually IC50 stands for the concentration that gives 50% inhibition. The low end stands for greater potency, the high end for weaker potency. Consider `O=C(Nc1ccnc2c1OCC1COCCN21)c1ccc(NS(=O)(=O)CCO)cc1N1CCC2(CC1)CC2` (stereo not drawn) [EX01, 4-((2-hydroxyethyl)sulfonamido)-2-(6-azaspiro[2.5]octan-6-yl)-N-(6a,7,9,10-tetrahydro-6H-[1,4]oxazino[4,3-d]pyrido[3,2-b][1,4]oxazin-4-yl)benzamide], for which the IC50 is under 50 nM. Under `CN1CCCOc2c(NC(=O)c3ccc(NS(=O)(=O)CCO)cc3N3CCC4(CC3)CC4)ccnc21` [EX02, 4-((2-hydroxyethyl)sulfonamido)-N-(5-methyl-2,3,4,5-tetrahydropyrido[3,2-b][1,4]oxazepin-9-yl)-2-(6-azaspiro[2.5]octan-6-yl)benzamide] stands under 50 nM. In the case of `O=C(Nc1ccc2c(n1)N1CCOCC1CO2)c1ccc(NS(=O)(=O)CCO)cc1N1CCC2(CC1)CC2` (stereo not drawn) [EX03, 4-((2-hydroxyethyl)sulfonamido)-2-(6-azaspiro[2.5]octan-6-yl)-N-(6a,7,9,10-tetrahydro-6H-[1,4]oxazino[4,3-d]pyrido[3,2-b][1,4]oxazin-2-yl)benzamide] it was under 50 nM; in that of `O=C(Nc1cccn(CCCC(F)(F)F)c1=O)c1ccc(NS(=O)(=O)CCO)cc1N1CCC2(CC1)CC2` [EX04, 4-((2-hydroxyethyl)sulfonamido)-N-(2-oxo-1-(4,4,4-trifluorobutyl)-1,2-dihydropyridin-3-yl)-2-(6-azaspiro[2.5]octan-6-yl)benzamide], 50 to 500 nM; in that of `O=C(Nc1ccc(=O)n(C2CCOCC2)n1)c1ccc(NS(=O)(=O)CCO)cc1N1CCC2(CC1)CC2` [EX05, 4-((2-hydroxyethyl)sulfonamido)-N-(6-oxo-1-(tetrahydro-2H-pyran-4-yl)-1,6-dihydropyridazin-3-yl)-2-(6-azaspiro[2.5]octan-6-yl)benzamide], 50 to 500 nM. On to `O=C(Nc1ccc(=O)n(C2CCOCC2)c1)c1ccc(NS(=O)(=O)CCO)cc1N1CCC2(CC1)CC2` [EX06, 4-((2-hydroxyethyl)sulfonamido)-N-(6-oxo-1-(tetrahydro-2H-pyran-4-yl)-1,6-dihydropyridin-3-yl)-2-(6-azaspiro[2.5]octan-6-yl)benzamide], for which the IC50 lay within 500 to 15000 nM. Under `O=C(Nc1ccc2c(n1)N1CCC(F)(F)CC1CO2)c1ccc(NS(=O)(=O)CCO)cc1N1CCC2(CC1)CC2` (stereo not drawn) [EX07, N-(8,8-difluoro-6,6a,7,8,9,10-hexahydrodipyrido[3,2-b:1′,2′-d][1,4]oxazin-2-yl)-4-((2-hydroxyethyl)sulfonamido)-2-(6-azaspiro[2.5]octan-6-yl)benzamide] stands under 50 nM; under `O=C(Nc1ccc(=O)n(CCCC(F)(F)F)n1)c1ccc(NS(=O)(=O)CCO)cc1N1CCC2(CC1)CC2` [EX08, 4-((2-hydroxyethyl)sulfonamido)-N-(6-oxo-1-(4,4,4-trifluorobutyl)-1,6-dihydropyridazin-3-yl)-2-(6-azaspiro[2.5]octan-6-yl)benzamide], under 50 nM. Under `O=C(Nc1ccnc2c1OCC1CC(F)(F)CCN21)c1ccc(NS(=O)(=O)CCO)cc1N1CCC2(CC1)CC2` (stereo not drawn) [EX10, N-(8,8-difluoro-6,6a,7,8,9,10-hexahydrodipyrido[3,2-b:1′,2′-d][1,4]oxazin-4-yl)-4-((2-hydroxyethyl)sulfonamido)-2-(6-azaspiro[2.5]octan-6-yl)benzamide] stands under 50 nM; under `COCCS(=O)(=O)N1CCc2cc(C(=O)Nc3cccc(N4CCOCC4)n3)c(N3CCC4(CC3)CC4)cc21` [EX13, 1-((2-methoxyethyl)sulfonyl)-N-(6-morpholinopyridin-2-yl)-6-(6-azaspiro[2.5]octan-6-yl)indoline-5-carboxamide], 500 to 15000 nM. As to `O=C(Nc1cccc(N2CCOCC2)n1)c1cc2c(cc1N1CCC3(CC1)CC3)N(S(=O)(=O)CCO)CC2` [EX14, 1-((2-hydroxyethyl)sulfonyl)-N-(6-morpholinopyridin-2-yl)-6-(6-azaspiro[2.5]octan-6-yl)indoline-5-carboxamide], the IC50 is under 50 nM. Under `Cc1cc(NC(=O)c2cc3c(cc2N2CCC4(CC2)CC4)N(S(=O)(=O)CCO)CC3)nc(N2CCC(F)(F)CC2)n1` [EX15, N-(2-(4,4-difluoropiperidin-1-yl)-6-methylpyrimidin-4-yl)-1-((2-hydroxyethyl)sulfonyl)-6-(6-azaspiro[2.5]octan-6-yl)indoline-5-carboxamide] stands under 50 nM; under `O=C(Nc1ccc(=O)n(C2CC(F)(F)C2)n1)c1cc2c(cc1N1CCC3(CC1)CC3)N(S(=O)(=O)CCO)CC2` [EX18, N-(1-(3,3-difluorocyclobutyl)-6-oxo-1,6-dihydropyridazin-3-yl)-1-((2-hydroxyethyl)sulfonyl)-6-(6-azaspiro[2.5]octan-6-yl)indoline-5-carboxamide], under 50 nM; under `O=C(Nc1ccnc2c1OCC1CC(F)(F)CCN21)c1cc2c(cc1N1CCC3(CC1)CC3)N(S(=O)(=O)CCO)CC2` (stereo not drawn) [EX19, N-(8,8-difluoro-6,6a,7,8,9,10-hexahydrodipyrido[3,2-b:1′,2′-d][1,4]oxazin-4-yl)-1-((2-hydroxyethyl)sulfonyl)-6-(6-azaspiro[2.5]octan-6-yl)indoline-5-carboxamide], under 50 nM.

Regarding `Cc1cc(NC(=O)c2cc3c(cc2N2CCC4(CC2)CC4)N(S(C)(=O)=O)CC3)nc(N2CCC(F)(F)CC2)n1` [EX20, N-(2-(4,4-difluoropiperidin-1-yl)-6-methylpyrimidin-4-yl)-1-(methylsulfonyl)-6-(6-azaspiro[2.5]octan-6-yl)indoline-5-carboxamide], the concentration for half-maximal inhibition (IC50) was 50 to 500 nM. Under `O=C(Nc1ccc(=O)n(C2CCC(F)(F)CC2)n1)c1cc2c(cc1N1CCC3(CC1)CC3)N(S(=O)(=O)CCO)CC2` [EX21, N-(1-(4,4-difluorocyclohexyl)-6-oxo-1,6-dihydropyridazin-3-yl)-1-((2-hydroxyethyl)sulfonyl)-6-(6-azaspiro[2.5]octan-6-yl)indoline-5-carboxamide] stands under 50 nM; under `CC(C)n1nc(NC(=O)c2cc3c(cc2N2CCC4(CC2)CC4)N(S(=O)(=O)CCO)CC3)ccc1=O` [EX22, 1-((2-hydroxyethyl)sulfonyl)-N-(1-isopropyl-6-oxo-1,6-dihydropyridazin-3-yl)-6-(6-azaspiro[2.5]octan-6-yl)indoline-5-carboxamide], under 50 nM. Molecule `Cc1cc(NC(=O)c2cc3c(cc2N2CCC4(CC2)CC4)N(C(=O)CCO)CC3)nc(N2CCC(F)(F)CC2)n1` [EX25, N-(2-(4,4-difluoropiperidin-1-yl)-6-methylpyrimidin-4-yl)-1-(3-hydroxypropanoyl)-6-(6-azaspiro[2.5]octan-6-yl)indoline-5-carboxamide] came in with a half-inhibitory concentration (IC50) of 500 to 15000 nM.
